According to patent US20260092054A1, “FUSED RING COMPOUND AND PHARMACEUTICAL CONTAINING SAME” (KAKEN PHARMACEUTICAL CO., LTD., priority 2022, published 2026):
pIC50: −log10 of the molar value.

Tests used:
human STAT6/pIL-4Rα = biological target: T1, human STAT6/pIL-4Rα (Homo sapiens, UniProt P42226); assay: Binding inhibitory activity between human STAT6/pIL-4Rα by fluorescence polarization method; settings: rhSTAT6 (123-658) / FAM-pIL-4Rα peptide
T1 construct: histidine tag
T1 sequence (P42226 123-658): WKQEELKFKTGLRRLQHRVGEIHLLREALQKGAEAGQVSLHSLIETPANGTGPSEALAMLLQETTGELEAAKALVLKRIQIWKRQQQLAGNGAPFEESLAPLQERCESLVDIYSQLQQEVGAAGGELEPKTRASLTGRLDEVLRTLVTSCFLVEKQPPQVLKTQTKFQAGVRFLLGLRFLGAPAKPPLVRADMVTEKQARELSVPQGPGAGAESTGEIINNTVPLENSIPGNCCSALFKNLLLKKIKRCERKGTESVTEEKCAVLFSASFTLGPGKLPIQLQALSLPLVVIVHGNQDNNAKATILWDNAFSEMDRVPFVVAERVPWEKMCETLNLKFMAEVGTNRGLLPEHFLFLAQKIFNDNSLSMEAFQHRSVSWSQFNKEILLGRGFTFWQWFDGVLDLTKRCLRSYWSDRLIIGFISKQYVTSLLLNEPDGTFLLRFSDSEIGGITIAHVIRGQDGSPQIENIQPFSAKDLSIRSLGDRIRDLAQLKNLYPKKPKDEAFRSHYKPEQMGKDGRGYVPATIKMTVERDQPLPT
Procedure, shortened: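 His-tagged human STAT6 (residues 123–658, E. coli-expressed) was preincubated with compound for 30 min at RT in the dark, in buffer e.g. 50 mM NaCl, 10 mM HEPES pH 7.0, 1 mM DTT, 1 mM EDTA, 0.01% NP-40. FAM-pIL-4Rα peptide was then added for 30 min. Fluorescence polarisation was read at 485/535 nm, with IC50 interpolated linearly between two points flanking 50%.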

human STAT6 = assay: Human STAT6 dependent reporter activity (IL-4 stimulated STAT6 reporter assay using STAT6-HEK293 cells); type: cell-based; settings: Homo sapiens, IL-4 stimulation, luciferase activity, read-out: Inhibition rate (%); for inhibition at 0.1 µM: compound 0.1 μmol/L; for inhibition at 1 µM: compound 1 μmol/L

pIC50 (human STAT6/pIL-4Rα)	SMILES	inhibition at 0.1 µM (human STAT6) [%]	inhibition at 1 µM (human STAT6) [%]
6.25	CCn1c(-c2ccc(-n3c(C)nn(C)c3=O)cc2)cc2cc(C#N)cc(C(=O)Nc3ccc(F)c(C(N)=O)c3)c21 [Ex. 50]	42	99
6.43	CCn1c(-c2ccc(N3C(=O)C(C)CC3C)cc2)cc2cc(C(F)(F)F)nc(C(=O)Nc3cccc(C(N)=O)c3)c21 (stereo not shown) [Ex. 134]	48	99
6.47	COCCn1c(-c2ccc(-n3c(C)nn(C)c3=O)cc2)cc2cc(C(F)(F)F)cc(C(=O)Nc3nccs3)c21 [Ex. 85]	11	73
6.62	COCCn1c(-c2ccc(-n3c(C)nn(C)c3=O)cc2)cc2cc(C(F)(F)F)cc(C(=O)Nc3nnc(C)s3)c21 [Ex. 84]	93	100
6.41	CCn1c(-c2ccc(-n3c(C)nn(C)c3=O)cc2)cc2nccc(C(=O)Nc3cccc(C(N)=O)c3F)c21 [Ex. 59]	83	99
6.16	Cc1nn(C)c(=O)n1-c1ccc(-c2cc3ccnc(C(=O)Nc4cccc(C(N)=O)c4F)c3n2CC2CCC2)cc1 [Ex. 122]	23	89
6.60	CCn1c(-c2ccc(-n3c(C)nn(C)c3=O)cc2)cc2cc(C(F)(F)F)cc(C(=O)Nc3cccc(C(N)=O)c3F)c21 [Ex. 15]	97	100
6.57	CCn1c(-c2ccc(-n3c(C)nn(C)c3=O)cc2)cc2c(C(F)(F)F)ccc(C(=O)Nc3ccc(F)c(C(N)=O)c3)c21 [Ex. 30]	76	100
6.49	CCn1c(-c2ccc(-n3c(C)nn(C)c3=O)cc2)cc2ccnc(C(=O)Nc3cccc(C(=O)Nc4c(C)ccn(C)c4=O)c3)c21 [Ex. 188]	44	97
6.51	CCn1c(-c2ccc(N3C(=O)C(C)CC3C)nc2)cc2cc(C(F)(F)F)cc(C(=O)Nc3ccc(F)c(C(N)=O)c3)c21 (stereo not shown) [Ex. 157]	62	
6.51	CCn1c(-c2ccc(-n3c(C)nn(C)c3=O)cc2)cc2c(C(F)(F)F)ccc(C(=O)Nc3cccc(C(N)=O)c3F)c21 [Ex. 49]	97	100
6.39	CCn1c(-c2ccc3c(c2)CCN3C(C)=O)nc2cc(Br)cc(C(=O)Nc3cccc(C(N)=O)c3)c21 [Ex. 8]	2	43
6.49	CCn1c(-c2ccc(N3CCOCC3=O)cc2)cc2cc(C(F)(F)F)cc(C(=O)Nc3cccc(C(N)=O)c3F)c21 [Ex. 66]	58	99
6.19	CCn1c(-c2ccc(-n3c(C)nn(C)c3=O)cc2C(F)(F)F)cc2cc(C(F)(F)F)cc(C(=O)Nc3ccc(F)c(C(N)=O)c3)c21 [Ex. 152]	38	84
6.38	Cc1nn(C)c(=O)n1-c1ccc(-c2cc3ccnc(C(=O)Nc4ccc(F)c(C(N)=O)c4)c3n2CC2CCC2)cc1 [Ex. 121]	40	97
6.62	CCn1c(-c2ccc(-n3c(C)nn(C)c3=O)cc2)cc2ccnc(C(=O)Nc3cccc(C(=O)Nc4cncn(C)c4=O)c3)c21 [Ex. 167]	90	99
6.46	COCCn1c(-c2ccc(-n3c(C)nn(C)c3=O)cc2)cc2cc(C(F)(F)F)cc(C(=O)Nc3cccc(C(=O)Nc4ccc(C)nn4)c3)c21 [Ex. 182]	52	100
6.18	CCn1c(-c2ccc(-n3cccn3)cc2)nc2cc(Br)cc(C(=O)Nc3cccc(C(N)=O)c3)c21 [Ex. 5]	8	63
6.44	CC1CC(C)N(c2ccc(-c3cc4ccnc(C(=O)Nc5ccc(F)c(C(N)=O)c5)c4n3CC3(C#N)CC3)cc2)C1=O (single isomer, unassigned) [Ex. 221]	60	94
6.54	CCn1c(-c2ccc(-n3c(C)nn(C)c3=O)cc2)cc2ccnc(C(=O)Nc3ccc(F)c(C(=O)Nc4ccc(C)n(C)c4=O)c3)c21 [Ex. 195]	56	
6.24	Cc1nn(C)c(=O)n1-c1ccc(-c2cc3cc(C(F)(F)F)cc(C(=O)Nc4ccc(F)c(C(N)=O)c4)c3n2CC2CC2)cc1 [Ex. 67]	56	96

pIC50 (human STAT6/pIL-4Rα)	SMILES	inhibition at 0.1 µM (human STAT6) [%]	inhibition at 1 µM (human STAT6) [%]
6.35	COCCn1c(-c2ccc(-n3c(C)nn(C)c3=O)cc2)cc2cc(C(F)(F)F)cc(C(=O)Nc3ccc4c(c3)C(=O)NCC4)c21 [Ex. 62]	59	99
5.57	CCn1c(-c2ccc(-n3c(C)nn(C)c3=O)cc2)c(I)c2cncc(C(=O)Nc3ccc(F)c(C(N)=O)c3)c21 [Ex. 140]	3	45
6.52	COCCn1c(-c2ccc(-n3c(C)nn(C)c3=O)cc2)cc2cc(C(F)(F)F)cc(C(=O)Nc3cccc(C(=O)Nc4ccn(CC5CC5)n4)c3)c21 [Ex. 180]	100	
7.00	COCCn1c(-c2ccc(-n3c(C)nn(C)c3=O)cc2)cc2cc(C(F)(F)F)cc(C(=O)Nc3cccc(C(N)=O)c3F)c21 [Ex. 33]	75	100
6.46	CCn1c(-c2ccc(-n3c(C)nn(C)c3=O)cc2)cc2c(Cl)ccc(C(=O)Nc3ccc(F)c(C(N)=O)c3)c21 [Ex. 68]	59	100
6.55	COCCn1c(-c2ccc(-n3c(C)nn(C)c3=O)cc2)cc2cc(C(F)(F)F)nc(C(=O)Nc3ccc(F)c(C(N)=O)c3)c21 [Ex. 90]	63	99
6.40	COCCn1c(-c2ccc(-n3c(C)nn(C)c3=O)cc2)cc2cc(C(F)(F)F)cc(C(=O)Nc3cccc(C(=O)Nc4cccn(C)c4=O)c3)c21 [Ex. 175]	65	
6.40	CCn1c(-c2ccc(-n3c(C)nn(C)c3=O)cc2)cc2ccnc(C(=O)Nc3cccc(C(=O)Nc4cccn(C)c4=O)c3)c21 [Ex. 169]	81	99
6.36	Cc1nn(C)c(=O)n1-c1ccc(-c2cc3ccnc(C(=O)Nc4cccc(C(N)=O)c4F)c3n2CCOCC(F)(F)F)cc1 [Ex. 113]	44	96
6.57	COCCn1c(-c2ccc(-n3c(C)nn(C)c3=O)cc2)cc2cc(C(F)(F)F)cc(C(=O)Nc3cccc(C(=O)Nc4cc[nH]n4)c3)c21 [Ex. 163]	60	99
6.47	COCCn1c(-c2ccc(-n3c(C)nn(C)c3=O)cc2)cc2cc(C(F)(F)F)cc(C(=O)Nc3cccc(C(=O)Nc4cccc(OC)n4)c3)c21 [Ex. 173]	43	100
6.59	COCCn1c(-c2ccc(-n3cnn(C)c3=O)cc2)cc2cc(C(F)(F)F)cc(C(=O)Nc3cccc(C(N)=O)c3F)c21 [Ex. 42]	90	100
6.28	CCn1c(-c2ccc(N3C(=O)C(C)CC3C)cc2)cc2cc(C(F)(F)F)cc(C(=O)Nc3cccc(C(N)=O)c3)c21 (stereo not shown) [Ex. 159]	50	95
6.64	CCn1c(-c2ccc(-n3c(C)nn(C)c3=O)cc2)cc2cc(C(F)(F)F)cc(C(=O)Nc3cccc(-c4ncc[nH]4)c3)c21 [Ex. 118]	95	
6.46	CCn1c(-c2ccc(-n3cnn(C)c3=O)cc2)cc2cc(C(F)(F)F)cc(C(=O)Nc3cccc(C(N)=O)c3)c21 [Ex. 35]	100	
6.51	COCCn1c(-c2ccc(-n3c(C)nn(C)c3=O)cc2)cc2cc(C(F)(F)F)cc(C(=O)Nc3cccc(C(=O)Nc4ccn(CC(=O)OC)n4)c3)c21 [Ex. 181]	94	
6.52	CCn1ccc(NC(=O)c2cccc(NC(=O)c3cc(C(F)(F)F)cc4cc(-c5ccc(-n6c(C)nn(C)c6=O)cc5)n(CCOC)c34)c2)n1 [Ex. 177]	99	
6.34	CCn1c(-c2ccc(N3CCOCC3=O)cc2)cc2cc(C(F)(F)F)cc(C(=O)Nc3ccc(F)c(C(N)=O)c3)c21 [Ex. 31]	80	97
6.38	CCn1c(-c2ccc(-n3c(C)nn(C)c3=O)cc2)cc2cc(C)cc(C(=O)Nc3ccc(F)c(C(N)=O)c3)c21 [Ex. 32]	91	100
6.21	Cc1nn(C)c(=O)n1-c1ccc(-c2cc3cccc(C(=O)Nc4ccc(F)c(C(N)=O)c4)c3n2CC2CC2)cc1 [Ex. 34]	39	96
